Experimental findings from US20080051429A1, “USE OF 4-AMINO-PIPERIDINES FOR TREATING SLEEP DISORDERS” (priority 2006, published 2008) are described below.

Holding throughout (assay): R-SAT broad profiling
Assay type in all cases: cell-based

Test [1] deals with T1, 5HT2B (Homo sapiens, UniProt P41595). Further details: expressed in transfected cells; host or cells: NIH3T3. The note with it: read-out: pEC50 or pIC50 (converted). How it is done:
(§1) The functional receptor assay, Receptor Selection and Amplification Technology (R-SAT), was used (with minor modifications from that previously described U.S. Pat. No. 5,707,798) to screen compounds for efficacy at the 5-HT2A receptor. Briefly, NIH3T3 cells were grown in 96 well tissue culture plates to 70-80% confluence. Cells were transfected for 12-16 hours with plasmid DNAs using superfect (Qiagen Inc.) as per manufacture's protocols. R-SAT's were generally performed with 50 ng/well of receptor and 20 ng/well of Beta-galactosidase plasmid DNA. All receptor and G-protein constructs used were in the pSI mammalian expression vector (Promega Inc) as described in U.S. Pat. No. 5,707,798. The 5HT2A receptor gene was amplified by nested PCR from brain cDNA using the oligodeoxynucleotides based on the published sequence (see Saltzman et. al. Biochem. Biophys. Res. Comm. 181:1469-78 (1991)). Large-scale transfections, cells were transfected for 12-16 hours, then trypsinized and frozen in DMSO. Frozen cells were later thawed, plated at 10,000-40,000 cells per well of a 96 well plate that contained drug. With both methods, cells were then grown in a humidified atmosphere with 5% ambient CO2 for five days. Media was then removed from the plates and marker gene activity was measured by the addition of the beta-galactosidase substrate ONPG (in PBS with 5% NP-40). The resulting colorimetric reaction was measured in a spectrophotometric plate reader (Titertek Inc.)at […]. All data were analyzed using the computer program XLFit (IDBSm). Efficacy is the percent maximal repression compared to repression by a control compound (ritanserin in the case of 5HT2A). pIC50 is the negative of the log(IC50), where IC50 is the calculated concentration in Molar that produces 50% maximal repression.
(§2) The R-SAT assay (described above in example 289) was used to investigate the selectivity of 4-(4-Fluoro-benzyl)-3-(4-isobutoxy-benzyl)-8-methyl-1-oxa-3,8-diaza-spiro[4.5]decan-2-one.
Target sequence in this assay (P41595 whole entry): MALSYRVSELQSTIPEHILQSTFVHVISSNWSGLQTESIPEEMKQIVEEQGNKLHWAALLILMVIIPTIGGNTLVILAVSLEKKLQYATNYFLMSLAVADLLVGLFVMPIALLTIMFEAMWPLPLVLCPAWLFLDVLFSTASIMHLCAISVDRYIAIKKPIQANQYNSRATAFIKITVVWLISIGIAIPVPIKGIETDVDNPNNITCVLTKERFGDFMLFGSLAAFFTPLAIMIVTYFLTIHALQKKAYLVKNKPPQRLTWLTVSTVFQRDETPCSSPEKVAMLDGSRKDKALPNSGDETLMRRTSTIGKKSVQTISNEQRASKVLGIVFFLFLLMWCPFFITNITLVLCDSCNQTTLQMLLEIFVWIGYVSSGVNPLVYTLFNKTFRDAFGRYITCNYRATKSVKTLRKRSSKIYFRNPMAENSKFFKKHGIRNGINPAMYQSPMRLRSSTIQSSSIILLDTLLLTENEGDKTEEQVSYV

Another test concerns the target H1 (Homo sapiens, UniProt P35367). Further details: expressed in transfected cells; host or cells: NIH3T3. The note with it: agonist; read-out: pEC50 or pIC50 (converted). As to the method: as §1, §2
For test [2], the target named is T2, 5HT1E (Homo sapiens, UniProt P28566). Further details: expressed in transfected cells; host or cells: NIH3T3. The note with it: read-out: pEC50 or pIC50 (converted). As to the method: as §1, §2
Target sequence in this assay (P28566 whole entry): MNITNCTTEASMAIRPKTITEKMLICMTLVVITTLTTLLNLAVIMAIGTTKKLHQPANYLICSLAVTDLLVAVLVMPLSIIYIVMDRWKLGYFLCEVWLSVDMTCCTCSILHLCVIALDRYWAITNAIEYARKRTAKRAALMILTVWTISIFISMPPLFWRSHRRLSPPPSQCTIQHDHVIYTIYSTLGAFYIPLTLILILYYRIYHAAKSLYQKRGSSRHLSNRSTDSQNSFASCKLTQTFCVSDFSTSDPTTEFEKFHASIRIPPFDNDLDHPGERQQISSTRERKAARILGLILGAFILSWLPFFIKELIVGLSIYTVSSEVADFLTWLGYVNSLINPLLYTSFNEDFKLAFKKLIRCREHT
The target of the next test is 5HT1D (Homo sapiens, UniProt P28221). Further details: expressed in transfected cells; host or cells: NIH3T3. The note with it: read-out: pEC50 or pIC50 (converted). How it is done:
as §1, §2

Test [3] deals with T3, 5HT2C (Homo sapiens, UniProt P28335).
T3 sequence (P28335 33-458): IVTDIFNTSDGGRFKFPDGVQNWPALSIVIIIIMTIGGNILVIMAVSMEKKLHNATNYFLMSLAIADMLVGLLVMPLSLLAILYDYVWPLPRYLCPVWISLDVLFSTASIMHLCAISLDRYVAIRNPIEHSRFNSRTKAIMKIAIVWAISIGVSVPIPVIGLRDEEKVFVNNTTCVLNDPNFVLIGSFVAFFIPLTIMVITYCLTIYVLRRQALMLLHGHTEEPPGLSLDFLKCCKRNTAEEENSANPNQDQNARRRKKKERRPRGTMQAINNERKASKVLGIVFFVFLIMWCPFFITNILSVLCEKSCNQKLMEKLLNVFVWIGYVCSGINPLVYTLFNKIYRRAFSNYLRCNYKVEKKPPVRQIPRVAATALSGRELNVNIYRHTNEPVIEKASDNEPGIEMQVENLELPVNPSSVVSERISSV
Further details: expressed in transfected cells; host or cells: NIH3T3. How it is done:
as §1, §2

Test [4] deals with T1, 5HT2B. Further details: expressed in transfected cells. The note with it: read-out: pEC50/pIC50 (converted). How it is done: as §1
(§3) The R-SAT assay (described above in example 136) was used to investigate the selectivity of 2-(4-Methoxyphenyl)-N-(4-methylbenzyl)-N-(1-methylpiperidin-4-yl)acetamide hydrochloride.
Target sequence in this assay (P41595 whole entry, species assumed): as the sequence (P41595 whole entry) above

For test [5], the target named is T2, 5HT1E. Further details: expressed in transfected cells. The note with it: read-out: pEC50/pIC50 (converted). As to the method:
as §1, §3
Target sequence in this assay (P28566 whole entry, species assumed): as the sequence (P28566 whole entry) above

The next test addresses T4, 5HT1A (Homo sapiens, UniProt P08908).
T4 sequence (P08908 1-422): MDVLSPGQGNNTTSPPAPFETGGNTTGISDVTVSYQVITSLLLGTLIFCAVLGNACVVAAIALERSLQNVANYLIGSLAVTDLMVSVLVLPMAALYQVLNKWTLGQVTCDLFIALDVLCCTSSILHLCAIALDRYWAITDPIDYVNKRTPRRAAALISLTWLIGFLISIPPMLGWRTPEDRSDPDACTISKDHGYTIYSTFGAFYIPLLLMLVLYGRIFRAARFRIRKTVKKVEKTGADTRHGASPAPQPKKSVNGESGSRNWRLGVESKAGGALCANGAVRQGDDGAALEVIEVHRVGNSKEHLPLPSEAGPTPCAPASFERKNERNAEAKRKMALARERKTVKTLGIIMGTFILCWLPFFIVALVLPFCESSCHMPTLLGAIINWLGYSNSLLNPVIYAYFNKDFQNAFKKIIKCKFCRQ
Further details: expressed in transfected cells. The note with it: read-out: pEC50/pIC50 (converted). As to the method: as §1, §3

Another test has as its target 5HT1B (Homo sapiens, UniProt P28222). Further details: expressed in transfected cells. The note with it: read-out: pEC50/pIC50 (converted). As to the method: as §1, §3
Test [6] addresses T3, 5HT2C. Further details: expressed in transfected cells. The note with it: read-out: pEC50/pIC50 (converted). As to the method: as §1, §3

Read-outs that look alike come from different tables or passages of the source.

5HT1B, sequence (P28222 whole entry, species assumed): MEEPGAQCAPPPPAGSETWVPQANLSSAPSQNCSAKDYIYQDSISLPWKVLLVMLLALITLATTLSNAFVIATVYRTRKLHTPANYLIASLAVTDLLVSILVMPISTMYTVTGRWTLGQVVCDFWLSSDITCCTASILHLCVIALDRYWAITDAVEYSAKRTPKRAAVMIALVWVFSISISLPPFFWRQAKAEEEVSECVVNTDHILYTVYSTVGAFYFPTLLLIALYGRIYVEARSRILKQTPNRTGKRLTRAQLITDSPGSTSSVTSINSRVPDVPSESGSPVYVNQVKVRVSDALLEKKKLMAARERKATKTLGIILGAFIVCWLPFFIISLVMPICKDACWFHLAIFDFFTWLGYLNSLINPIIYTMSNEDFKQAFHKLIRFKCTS
5HT1D, sequence (P28221 whole entry, species assumed): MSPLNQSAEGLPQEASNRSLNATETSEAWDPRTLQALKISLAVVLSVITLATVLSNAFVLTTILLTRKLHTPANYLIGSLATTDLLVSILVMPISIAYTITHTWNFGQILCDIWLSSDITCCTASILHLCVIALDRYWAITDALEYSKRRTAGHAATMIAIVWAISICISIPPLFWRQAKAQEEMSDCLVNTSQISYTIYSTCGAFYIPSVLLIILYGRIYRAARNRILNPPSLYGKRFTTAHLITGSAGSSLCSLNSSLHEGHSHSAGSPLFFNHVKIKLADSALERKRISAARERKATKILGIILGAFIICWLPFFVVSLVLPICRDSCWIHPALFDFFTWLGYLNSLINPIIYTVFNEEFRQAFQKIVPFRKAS
H1, sequence (P35367 whole entry): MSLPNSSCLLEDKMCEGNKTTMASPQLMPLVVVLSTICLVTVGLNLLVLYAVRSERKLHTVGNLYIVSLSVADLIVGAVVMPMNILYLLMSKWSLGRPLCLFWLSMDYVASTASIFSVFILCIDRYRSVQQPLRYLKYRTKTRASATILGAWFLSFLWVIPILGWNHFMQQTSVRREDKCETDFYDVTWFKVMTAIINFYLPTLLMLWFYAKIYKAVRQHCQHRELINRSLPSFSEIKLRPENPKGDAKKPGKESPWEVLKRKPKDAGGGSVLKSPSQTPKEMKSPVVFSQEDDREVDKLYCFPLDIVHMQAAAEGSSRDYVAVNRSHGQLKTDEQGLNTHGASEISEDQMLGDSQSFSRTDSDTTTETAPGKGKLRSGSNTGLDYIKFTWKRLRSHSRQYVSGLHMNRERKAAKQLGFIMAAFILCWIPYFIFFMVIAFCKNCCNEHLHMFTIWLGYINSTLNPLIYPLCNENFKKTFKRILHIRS

`CC(C)COc1ccc(CN2C(=O)OC3(CCN(C)CC3)C2Cc2ccc(F)cc2)cc1.Cl` (racemic) [Example 69NLS75, 4-(4-Fluorobenzyl)-3-(4-isobutoxybenzyl)-8-methyl-1-oxa-3,8-diazaspiro[4.5]decan-2-one, hydrochloride]: the EC50 at 5HT2B [1] (agonist) is over 3.16 µM; at H1, over 3.16 µM; on 5HT1E [2] (agonist), over 3.16 µM; on 5HT1D (agonist) it was over 3.16 µM; at 5HT2C [3] (agonist, read-out: pEC50 or pIC50 (converted)), over 3.16 µM. Besides, the IC50 at 5HT2B [1] (antagonist) is over 3.16 µM; on 5HT2B [1] (inverse) it was over 2.51 µM; at 5HT1E [2] (antagonist) it was over 0.631 µM; at 5HT1D (antagonist) it was over 0.562 µM. At 5HT2C [3] (inverse), this compound gave an efficacy in brackets of 77%.

In the case of `COc1ccc(CC(=O)N(Cc2ccc(C)cc2)C2CCN(C)CC2)cc1` [Example 50ELH27, 2-(4-Methoxyphenyl)-N-(4-methylbenzyl)-N-(1-methylpiperidin-4-yl)acetamide], the EC50 at 5HT2B [4] (agonist), at 5HT1E [5] (agonist), at 5HT1A (agonist), at 5HT1B (agonist) and at 5HT2C [6] (agonist) was over 3.16 µM throughout. Also, the IC50 at 5HT2B [4] (inverse agonist) is 0.126 µM; on 5HT1E [5] (antagonist), over 3.16 µM; at 5HT1A (antagonist), over 3.16 µM; at 5HT1B (antagonist), over 3.16 µM; at 5HT2C [6] (inverse agonist), 0.1 µM.
